Read-outs that look alike come from different tables or passages of the source.
How the values were obtained:
[1] = test system: kinases of the PI3K isoenzyme family; conditions: cited from earlier work
DNA-PK [2] = target: T1, DNA-PK (Homo sapiens (Human), UniProt P78527); experiment: DNA-PK assay (biochemical), flashplate 33P-ATP kinase assay
Procedure, shortened: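 Radiometric kinase reaction in streptavidin-coated flashplates, stopped with 200 mM EDTA, then 30 min room-temperature incubation and saline washes.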

[3] = target: DNA-PK phosphorylation at serine 2056 (Homo sapiens (Human), UniProt P78527); experiment: DNA-PK phosphorylation at serine 2056 (cellular), bleomycin-treated HCT116 cells, ELISA; assay type: cell-based; conditions: cellular DNA-PK phosphorylation at serine 2056, HCT116; read-out: IC50 pDNA-PK
Procedure, shortened: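 HCT116 cells grown overnight were co-treated with 10 μM bleomycin and test compound for 6 h at 37 °C. Phospho-DNA-PK was quantified by chemiluminescent ELISA and normalised to total DNA-PKcs signal, with DMSO control as blank.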

Kv11.1 (hERG) [4] = target: T2, Kv11.1 (hERG) (Homo sapiens (Human), UniProt Q12809); experiment: Kv11.1 ion channel binding assay (Predictor hERG fluorescence polarisation); conditions: cells marked *: measured using hERG binding assay instead of hERG patch clamp assay; read-out: Ki [Kv1.11 hERG]
T2 sequence (Q12809 whole entry): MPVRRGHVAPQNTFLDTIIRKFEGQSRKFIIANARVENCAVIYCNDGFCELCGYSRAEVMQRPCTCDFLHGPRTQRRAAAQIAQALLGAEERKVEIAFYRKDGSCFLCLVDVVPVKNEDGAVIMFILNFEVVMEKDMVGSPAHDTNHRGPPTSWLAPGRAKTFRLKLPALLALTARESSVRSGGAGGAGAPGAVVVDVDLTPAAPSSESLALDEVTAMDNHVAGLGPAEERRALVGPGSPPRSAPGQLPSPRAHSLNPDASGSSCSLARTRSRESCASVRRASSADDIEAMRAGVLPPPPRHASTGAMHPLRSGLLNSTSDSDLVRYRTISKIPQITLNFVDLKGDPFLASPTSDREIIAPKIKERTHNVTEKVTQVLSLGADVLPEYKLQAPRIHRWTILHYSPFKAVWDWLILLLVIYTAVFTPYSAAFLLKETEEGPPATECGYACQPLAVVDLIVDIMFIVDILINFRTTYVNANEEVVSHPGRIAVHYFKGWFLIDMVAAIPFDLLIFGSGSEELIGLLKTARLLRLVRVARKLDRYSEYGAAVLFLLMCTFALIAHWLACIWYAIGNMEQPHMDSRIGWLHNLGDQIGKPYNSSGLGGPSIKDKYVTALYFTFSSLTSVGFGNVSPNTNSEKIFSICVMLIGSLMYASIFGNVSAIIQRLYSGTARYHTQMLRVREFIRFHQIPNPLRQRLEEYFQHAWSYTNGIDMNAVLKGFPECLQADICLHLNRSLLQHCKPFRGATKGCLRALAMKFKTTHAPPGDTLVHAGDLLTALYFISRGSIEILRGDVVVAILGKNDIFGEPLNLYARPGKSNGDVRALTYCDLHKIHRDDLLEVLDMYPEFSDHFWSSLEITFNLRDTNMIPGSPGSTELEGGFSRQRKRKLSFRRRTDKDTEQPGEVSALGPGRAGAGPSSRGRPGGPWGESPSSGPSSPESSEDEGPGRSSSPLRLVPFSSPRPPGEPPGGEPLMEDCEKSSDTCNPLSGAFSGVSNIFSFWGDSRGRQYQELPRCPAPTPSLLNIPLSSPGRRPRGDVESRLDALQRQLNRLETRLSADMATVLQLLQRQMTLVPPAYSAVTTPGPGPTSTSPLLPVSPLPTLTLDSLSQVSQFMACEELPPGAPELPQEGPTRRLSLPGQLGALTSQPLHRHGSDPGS
Procedure: D) Kv11.1 Ion Channel Binding Assay
Kv11.1 (hERG=human ether a go-go related […]) is a cardiac K^+ channel which should if possible not interact with the test substances. This interaction is determined quantitatively with the aid of the Predictor™ hERG Fluorescence Polarizations (FP) Assays from Life Technologies. In the case of this assay principle, cardiomyocyte cell membranes having a certain proportion of Kv11.1 channels are isolated. A dye-labelled Kv11.1 binding partner gives a high fluorescence polarisation signal by interaction with the Kv11.1. In the case of displacement of the dye, a reduction in the fluorescence polarisation signal occurs.
The assay is carried out automatically as follows: 15 nl of the test substances (highest concentration: 10 mM, 10 concentrations: dilution factors 1:3.16, DMSO) are transferred into an empty microtitre plates having 384 wells by means of an acoustic pipetter. 3 μl of the isolated membranes are subsequently added. Membranes and test substances are incubated at 22° C. for 15 min (+/−5 min). In the next step, the dye-labelled binding partner is added, followed by incubation at 22° C. After incubation for two hours, the measurement of the fluorescence polarisation is carried out on an Envision multimode Reader. Measured raw data are standardised with the aid of Genedata Assay Analyzer. The 1050 and % effect values are calculated in Genedata Condoseo.

DNA-PK [5] = target: T1, DNA-PK; conditions: ATP-competitive; Hardcastle et al. (2005); cited from earlier work
Kv11.1 (hERG) [6] = target: T2, Kv11.1 (hERG)

IC50 (DNA-PK [2]; biochemical DNA-PK assay)	IC50 [3]	SMILES	inhibition of kinases of the PI3K isoenzyme family [1]	Ki (Kv11.1 (hERG) [4])	IC50 (DNA-PK [5])	IC50 (DNA-PK [2]; enzymatic, 5 μM ATP)	Ki (Kv11.1 (hERG) [6])
		CCN1CCN(CC(=O)Nc2ccc(-c3cccc4c(=O)cc(N5CCOCC5)oc34)c3sc4ccccc4c23)CC1 [KU-0060648]	potently inhibited				
< 3 nM	< 500 nM	Cc1nccnc1C(O)c1ccc(F)c(-c2ncnc3cc(N4CCOCC4)sc23)c1 (stereo not shown) [Example 265, [4-Fluoro-3-(6-morpholin-4-yl-thieno[3,2-d}-pyrimidin-4-yl)-phenyl]-(3-methyl-pyrazin-2-yl)-methanol]		> 25000 nM			
7 to 30 nM	10000 to 30000 nM	CNC(=O)C(c1cc(-c2ncnc3cc(N4CCOCC4)ccc23)c(F)cc1Cl)c1nccnc1C (stereo not shown) [Example 254, 2-[2-Chloro-4-fluoro-5-(7-morpholin-4-yl-quinazolin-4-yl)-phenyl]-N-methyl-2-(3-methyl-pyrazin-2-yl)acetamide]		> 25000 nM			
< 3 nM	< 500 nM	Fc1cc(Cl)c(Cc2ccc3nccn3n2)cc1-c1ncnc2cc(N3CCOCC3)ccc12 [Example 235, 4-(4-Chloro-2-fluoro-5-imidazo[1,2-b]-pyridazin-6-ylmethyl - phenyl)-7-morpholin-4-ylquinazoline]		> 25000 nM			
< 3 nM	< 500 nM	Cc1nccnc1C(O)c1ccc(F)c(-c2ncnc3cc(N4CCOCC4)sc23)c1 (stereo not shown) [Example 245, [4-Fluoro-3-(6-morpholin-4-yl-thieno[3,2-d}-pyrimidin-4-yl)-phenyl]-(3-methyl-pyrazin-2-yl)-methanol]		> 25000 nM			
7 to 30 nM	10000 to 30000 nM	NC(=O)C(c1ccc(F)c(-c2ncnc3cc(N4CCOCC4)ccc23)c1)c1nccn2ncnc12 (stereo not shown) [Example 280, 2-[4-Fluoro-3-(7-morpholin-4-yl-quinazolin-4-yl)-phenyl]-2-[1,2,4]-triazolo[1,5-a]-pyrazin-8-yl-acetamide]		> 25000 nM			
		O=c1cc(N2CCOCC2)oc2c(-c3cccc4c3sc3ccccc34)cccc12 [NU-7441]			20 nM		
3 to 7 nM	500 to 5000 nM	Cc1nccnc1C(C(N)=O)c1cc(-c2ncnc3cc(N4CCOCC4)sc23)c(F)cc1Cl (stereo not shown) [Example 269, 2-[2-Chloro-4-fluoro-5-(6-morpholin-4-yl-thieno[3,2-d}-pyrimidin-4-yl)-phenyl]-2-(3-methyl-pyrazin-2-yl)-acetamide]		> 25000 nM			
3 to 7 nM	10000 to 30000 nM	NC(=O)C(c1ccc(F)c(-c2ncnc3cc(N4CCOCC4)ccc23)c1)c1nncc2ccsc12 (stereo not shown) [Example 284, 2-[4-Fluoro-3-(7-morpholin-4-yl-quinazolin-4-yl)-phenyl]-2-thieno-[2,3-d}pyridazin-7-yl-acetamide]		> 25000 nM			
< 3 nM	< 500 nM	COc1nccnc1C(O)c1cc(-c2ncnc3cc(N4CCOCC4)cc(F)c23)c(F)cc1Cl (stereo not shown) [Example 249, [2-Chloro-4-fluoro-5-(5-fluoro-7-morpholin-4-yl-quinazolin-4-yl)-phenyl]-(3-methoxy-pyrazin-2-yl)-methanol]		> 25000 nM			
< 3 nM	< 500 nM	Cn1cnc2ccnc(C(O)c3ccc(F)c(-c4ncnc5cc(N6CCOCC6)ccc45)c3)c21 (stereo not shown) [Example 461, [4-Fluoro-3-(7-morpholin-4-yl-quinazolin-4-yl)-phenyl]-(3-methyl-3H-imidazo[4,5-c]-pyridin-4-yl)methanol]		> 25000 nM			
< 3 nM	< 500 nM	COc1nccnc1C(O)c1ccc(F)c(-c2ncnc3cc(N4CCOCC4)cc(F)c23)c1 (single isomer, unassigned) [Example 252, [4-Fluoro-3-(5-fluoro-7-morpholin-4-yl-quinazolin-4-yl)-phenyl]-(3-methoxy-pyrazin-2-yl)-methanol]		> 25000 nM			
3 to 7 nM	5000 to 10000 nM	OC(c1ccc(F)c(-c2ncnc3cc(N4CCOCC4)ccc23)c1)c1nccn2ncnc12 (stereo not shown) [Example 279, [4-Fluoro-3-(7-morpholin-4-yl-quinazolin-4-yl)-phenyl]-[1,2,4]-triazolo[1,5-a]-pyrazin-8-ylmethanol]		> 25000 nM			
3 to 7 nM	500 to 5000 nM	COc1ccc(C(C(N)=O)c2cc(-c3ncnc4cc(N5CCOCC5)sc34)c(F)cc2Cl)nn1 (stereo not shown) [Example 272, 2-[2-Chloro-4-fluoro-5-(6-morpholin-4-yl-thieno[3,2-d}-pyrimidin-4-yl)-phenyl]-2-(6-methoxy-pyridazin-3-yl)acetamide]		> 25000 nM			
3 to 7 nM	500 to 5000 nM	Cc1nccnc1[C@@H](O)c1ccc(F)c(-c2ncnc3cc(N4CCOCC4)cc(F)c23)c1 [Example 251, (S)-[4-fluoro-3-(5-fluoro-7-morpholin-4-ylquinazolin-4-yl)-phenyl]-(3-methyl-pyrazin-2-yl)-methanol]		> 25000 nM			
3 to 7 nM	500 to 5000 nM	COc1ccc(C(O)c2cc(-c3ncnc4cc(N5CCOCC5)ccc34)ccc2Cl)nn1 (stereo not shown) [Example 459, [2-Chloro-5-(7-morpholin-4-yl-quinazolin-4-yl)-phenyl]-(6-methoxy-pyridazin-3-yl)-methanol]		> 25000 nM			
< 3 nM	< 500 nM	OC(c1ccc(F)c(-c2ncnc3cc(N4CCOCC4)ccc23)c1)c1ncnc2ccoc12 (stereo not shown) [Example 471, [4-Fluoro-3-(7-morpholin-4-yl-quinazolin-4-yl)-phenyl]furo[3,2-d}-pyrimidin-4-yl-methanol]		> 25000 nM			
3 to 7 nM	500 to 5000 nM	OC(c1ccc(F)c(-c2ncnc3cc(N4CCOCC4)ccc23)c1)c1ncnc2ccoc12 (stereo not shown) [Example 443, [4-fluoro-3-(7-morpholin-4-yl-quinazolin-4-yl)-phenyl]furo[3,2-d}-pyrimidin-4-yl-methanol]		> 25000 nM			
		O=c1ccc(C(O)c2ccc(F)c(-c3ncnc4cc(N5C6CCC5COC6)ccc34)c2)n[nH]1 (stereo not shown) [Example 75, 6-({4-Fluoro-3-[7-(3-oxa-8-aza-bicyclo-[3.2.1]oct-8-yl)-quinazolin-4-yl]phenyl}-hydroxymethyl)-2H-pyridazin-3-one]				> 30 nM	> 25000 nM

SMILES	IC50 (DNA-PK [2]; biochemical DNA-PK assay)	IC50 [3]	inhibition of kinases of the PI3K isoenzyme family [1]	Ki (Kv11.1 (hERG) [4])	IC50 (DNA-PK [5])	IC50 (DNA-PK [2]; enzymatic, 5 μM ATP)	Ki (Kv11.1 (hERG) [6])
[2H]C1([2H])OC([2H])([2H])C([2H])([2H])N(c2ccc3c(-c4cc(C(O)c5nccnc5C)ccc4F)ncnc3c2)C1([2H])[2H] (stereo not shown) [Example 259, [4-Fluoro-3-[7-(2.2,3,3,5,5,6,6-octadeuteriomorpholin-4-yl)quinazolin-4-yl]phenyl]-(3-methyl-pyrazin-2-yl)-methanol]	< 3 nM	< 500 nM		> 25000 nM			
COc1ccc(C(O)c2ccc(F)c(-c3ncnc4cc(N5CCOCC5)cc(F)c34)c2)nn1 (stereo not shown) [Example 256, [4-Fluoro-3-(5-fluoro-7-morpholin-4-yl-quinazolin-4-yl)-phenyl]-(6-methoxy-pyridazin-3-yl)-methanol]	< 3 nM	< 500 nM		> 25000 nM			

Source: US9732094B2, “Arylquinazolines” (Merck Patent GmbH, priority 2013, dated 2017)
